Among the test systems are UO-31 renal; HCT-116 colon; SNB-19 CNS; A549 NSCLC; OVCAR-4 ovarian; KM12 colon; UACC-257 melanoma; OVCAR-5 ovarian; HOP-92 NSCLC; SK-MEL-5 melanoma.
What all share (test): NCI-60 cell line screen, 48 h

Molecules are shown by their SMILES. “And” between values parts separate entries of the source, which are not always exact repeats. Equal entries are not always repeated.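 Five compound concentrations were applied to cells in 96-well plates for 48 hours; endpoints were derived by simple linear interpolation of the resulting dose-response curve. GI50: concentration for 50% inhibition of growth. The concentration for full growth arrest is given as TGI.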 Some results are limits rather than exact numbers.

Turning to `O=C(OC[C@H]1O[C@H](OC(=O)c2cc(O)c(O)c(OC(=O)c3cc(O)c(O)c(O)c3)c2)[C@H](OC(=O)c2cc(O)c(O)c(OC(=O)c3cc(O)c(O)c(O)c3)c2)[C@@H](OC(=O)c2cc(O)c(O)c(OC(=O)c3cc(O)c(O)c(O)c3)c2)[C@@H]1OC(=O)c1cc(O)c(O)c(OC(=O)c2cc(O)c(O)c(O)c2)c1)c1cc(O)c(O)c(OC(=O)c2cc(O)c(O)c(O)c2)c1`, the GI50 in the test with UO-31 renal was 2.61 µM; in the test on HCT-116 colon it was 1.57 µM; in the test on SNB-19 CNS, 2.57 µM; in the test on A549 NSCLC it was 1.4 µM; in the test on OVCAR-4 ovarian, 4.67 µM; in the test with KM12 colon, 1.67 µM. The GI50 was 13.4 µM in the test with UACC-257 melanoma, 4.95 µM with OVCAR-5 ovarian, 10.6 µM in the test with HOP-92 NSCLC and 2.98 µM in the test with SK-MEL-5 melanoma. The TGI with UO-31 renal is greater than 25 µM; in the test with HCT-116 colon it was 6.98 µM; in the test with SNB-19 CNS it was greater than 25 µM; in the test on A549 NSCLC, greater than 25 µM; in the test with OVCAR-4 ovarian it was 18.3 µM; with KM12 colon, greater than 25 µM. In addition, the TGI in the test on UACC-257 melanoma is greater than 25 µM; in the test on OVCAR-5 ovarian, greater than 25 µM; in the test with HOP-92 NSCLC, greater than 25 µM; in the test on SK-MEL-5 melanoma, 13.1 µM.

Turning to `O=C1c2ccccc2S(=O)(=O)c2cc(-c3nn[nH]n3)ccc21`, the TGI in the test with UO-31 renal, in the test on HCT-116 colon, in the test on SNB-19 CNS, with A549 NSCLC, with OVCAR-4 ovarian and in the test with KM12 colon was greater than 100 µM throughout. The TGI with UACC-257 melanoma, with OVCAR-5 ovarian, with HOP-92 NSCLC and in the test with SK-MEL-5 melanoma was greater than 100 µM each time.

For the compound `O=c1c(-c2ccccc2)coc2cc(OC/C(=N/O)c3ccccc3)ccc12`, the GI50 in the test on UO-31 renal is 18.6 µM; in the test with HCT-116 colon, 11.2 µM; in the test on SNB-19 CNS, 23.2 µM; in the test with A549 NSCLC, 3.62 µM; in the test with OVCAR-4 ovarian, 14.9 µM; with KM12 colon, 20.2 µM. Also, the GI50 was 3.03 µM in the test with UACC-257 melanoma, 37 µM in the test with OVCAR-5 ovarian, 15.3 µM in the test with HOP-92 NSCLC and 10.9 µM with SK-MEL-5 melanoma. Also, the TGI in the test with UO-31 renal was 76.5 µM; in the test with HCT-116 colon, 68.6 µM; in the test on SNB-19 CNS, 86.9 µM; in the test on A549 NSCLC, 25.2 µM; in the test on OVCAR-4 ovarian it was 47.2 µM; in the test with KM12 colon, 48.3 µM. Besides, the TGI is 9.03 µM with UACC-257 melanoma, greater than 100 µM with OVCAR-5 ovarian, 47.4 µM in the test with HOP-92 NSCLC and 24.6 µM with SK-MEL-5 melanoma.

On to `CN1C(=O)C2C(C1=O)C1(O)c3ccccc3C2(N)c2ccccc21` (stereo not given), for which the TGI in the test with UO-31 renal, in the test on HCT-116 colon, in the test with SNB-19 CNS, with A549 NSCLC, with OVCAR-4 ovarian and in the test on KM12 colon was greater than 100 µM each time. The TGI in the test with UACC-257 melanoma, with OVCAR-5 ovarian, in the test with HOP-92 NSCLC and in the test with SK-MEL-5 melanoma was greater than 100 µM each time.

Consider `COc1ccc(OCC(=O)O)c(C(=O)CCC(=O)O)c1`, for which the TGI in the test with UO-31 renal, in the test with HCT-116 colon, with SNB-19 CNS, with A549 NSCLC, in the test with OVCAR-4 ovarian and in the test with KM12 colon was greater than 100 µM throughout. Besides, the TGI in the test on UACC-257 melanoma, in the test on OVCAR-5 ovarian, in the test with HOP-92 NSCLC and in the test on SK-MEL-5 melanoma was greater than 100 µM in each case.

Take `CCOC(=O)c1c2c(n3ccccc13)C(=O)c1ncccc1C2=O`: the GI50 in the test on UO-31 renal was 0.0338 µM; in the test on HCT-116 colon, 0.0424 µM; in the test on SNB-19 CNS it was 0.0587 µM; in the test with A549 NSCLC, 0.323 µM; in the test with OVCAR-4 ovarian, 0.687 µM; in the test with KM12 colon, 0.27 µM. The GI50 was 0.28 µM in the test on UACC-257 melanoma, 1.8 µM in the test with OVCAR-5 ovarian, 0.279 µM with HOP-92 NSCLC and 0.142 µM with SK-MEL-5 melanoma. Besides, the TGI in the test with UO-31 renal amounted to 3.79 µM; in the test on HCT-116 colon, 2.33 µM; with SNB-19 CNS it was 13.7 µM; with A549 NSCLC, 8.01 µM; in the test with OVCAR-4 ovarian it was 12.3 µM; with KM12 colon, 75.9 µM. The TGI in the test with UACC-257 melanoma came to 4.21 µM; with OVCAR-5 ovarian it was 27.5 µM; with HOP-92 NSCLC, 28.9 µM; in the test on SK-MEL-5 melanoma it was 1.51 µM.

`NCCCNCCCCNC(=O)C(O)NC(=O)CCCCCCN=C(N)N` (stereo not given): the GI50 was 2980 µM with UO-31 renal; 1830 µM in the test on HCT-116 colon; 2080 µM in the test with SNB-19 CNS; 1640 µM in the test with A549 NSCLC; 2490 µM in the test on OVCAR-4 ovarian; 1360 µM with KM12 colon. In addition, the GI50 in the test on UACC-257 melanoma is greater than 4100 µM; in the test with OVCAR-5 ovarian it was greater than 3010 µM; in the test on HOP-92 NSCLC, 2660 µM; in the test on SK-MEL-5 melanoma, 1730 µM. Besides, the TGI with UO-31 renal is 619 µM and > 5000 µM; in the test with HCT-116 colon, 750 µM and > 4790 µM; in the test with SNB-19 CNS, 750 µM and > 4430 µM; in the test on A549 NSCLC it was 750 µM and > 5000 µM; in the test with OVCAR-4 ovarian, 619 µM and > 2810 µM; in the test with KM12 colon, 619 µM and > 5000 µM. The TGI was greater than 5000 µM in the test on UACC-257 melanoma; greater than 5000 µM in the test with OVCAR-5 ovarian; 745 µM and > 4350 µM in the test on HOP-92 NSCLC; > 750 µM and 2820 µM in the test with SK-MEL-5 melanoma.

(Values after PubChem BioAssay (NCI).)
